Data as given in patent publication US9567326B2, “Pyrimidine compounds for the treatment of cancer” (THE UNIVERSITY OF NORTH CAROLINA AT CHAPEL HILL, priority 2012, dated 2017).

Biological target: T1, Mer (Homo sapiens, UniProt Q12866)
T1 sequence (Q12866 21-999): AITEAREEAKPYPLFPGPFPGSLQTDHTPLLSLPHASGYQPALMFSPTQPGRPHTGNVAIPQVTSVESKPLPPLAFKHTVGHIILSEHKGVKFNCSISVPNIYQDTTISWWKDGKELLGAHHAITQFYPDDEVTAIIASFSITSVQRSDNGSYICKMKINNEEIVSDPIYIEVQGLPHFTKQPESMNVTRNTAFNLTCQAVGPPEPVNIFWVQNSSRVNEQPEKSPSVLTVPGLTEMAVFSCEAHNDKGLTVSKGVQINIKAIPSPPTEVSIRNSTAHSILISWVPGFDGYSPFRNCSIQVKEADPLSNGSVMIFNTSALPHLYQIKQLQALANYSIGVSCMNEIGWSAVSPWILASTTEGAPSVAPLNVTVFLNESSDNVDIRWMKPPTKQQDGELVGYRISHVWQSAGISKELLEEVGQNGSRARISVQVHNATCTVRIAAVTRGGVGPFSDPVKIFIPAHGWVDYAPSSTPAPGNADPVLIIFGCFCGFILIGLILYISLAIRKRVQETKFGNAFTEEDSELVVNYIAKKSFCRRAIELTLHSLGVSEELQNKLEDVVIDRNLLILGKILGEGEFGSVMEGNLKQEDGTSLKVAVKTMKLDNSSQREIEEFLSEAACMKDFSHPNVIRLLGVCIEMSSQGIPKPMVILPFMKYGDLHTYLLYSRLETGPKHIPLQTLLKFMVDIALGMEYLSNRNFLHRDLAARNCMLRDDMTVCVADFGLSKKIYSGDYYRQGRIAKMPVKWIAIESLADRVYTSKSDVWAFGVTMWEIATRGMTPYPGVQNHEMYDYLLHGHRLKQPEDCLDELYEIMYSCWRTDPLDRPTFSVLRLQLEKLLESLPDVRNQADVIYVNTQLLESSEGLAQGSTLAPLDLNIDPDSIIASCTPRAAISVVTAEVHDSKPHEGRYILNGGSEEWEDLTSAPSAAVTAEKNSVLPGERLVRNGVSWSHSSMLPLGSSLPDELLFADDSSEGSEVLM
Test: Mer IC50
Format: biochemical

SMILES | IC50 (Table 3 (General Procedure C compounds)) [µM] | IC50 (Table 7 (General Procedure G compounds)) [µM]
CCCCNc1ncc(-c2ccc(C(=O)NC3CCN(C(=O)OC(C)(C)C)CC3)cn2)c(NC2CCC(O)CC2)n1 (centres unmarked) [UNC1898A] | < 0.01 | 
CCCCNc1ncc(-c2cncc(N)n2)c(N[C@H]2CC[C@H](O)CC2)n1 [UNC3118A] |  | < 0.01
